Laboratory results published in patent publication US20190231707A1, “TRANSDERMAL DRUG DELIVERY DEVICE FOR DELIVERING OPIOIDS” (CHRONO THERAPEUTICS INC., priority 2016, published 2019).

Experiment: Average cumulative delivery / flux across cadaver skin
Format: in vitro ADME
Settings: FIG. 15
Excerpt: The prodrug of Naltrexone with the PEG conjugation increased the molecular weight of the compound to be about 690 g/mole. […] The average flux for the Naltrexone was about 15.37 micrograms (μg) per hour per cm^2.

O=C1CC[C@@]2(O)[C@H]3Cc4ccc(O)c5c4[C@@]2(CCN3CC2CC2)[C@H]1O5 [Naltrexone]
average flux across the cadaver skin: about 15.37 micrograms (μg) per hour per cm^2
